{"source": "ChEMBL document CHEMBL5143567", "about": "“Dose Number as a Tool to Guide Lead Optimization for Orally Bioavailable Compounds in Drug Discovery” (J Med Chem, 2022)", "key": {"[1]": {"experiment": "Permeability in human Caco-2 cells", "assay_type": "ADME, cell-based", "conditions": "read-out: permeability"}, "physchem": {"experiment": "physchem", "conditions": "phosphate buffer, pH 6.8", "description": "Aqueous solubility of the compound in phosphate buffer at pH 6.8 measured after 72 hrs by UV-Vis spectrophotometer"}, "[2]": {"experiment": "Aqueous solubility of the compound at pH 1.8", "assay_type": "physicochemical", "conditions": "buffer"}, "[3]": {"experiment": "Aqueous solubility of the compound at pH 5", "assay_type": "physicochemical", "conditions": "buffer"}, "[4]": {"experiment": "Permeability in MDCK-II cells", "assay_type": "ADME, cell-based, Canis lupus familiaris", "conditions": "dog, read-out: permeability"}, "[5]": {"experiment": "Aqueous solubility of the compound", "assay_type": "physicochemical", "conditions": "buffer"}, "[6]": {"experiment": "Aqueous solubility of the compound in FaSSIF", "assay_type": "physicochemical"}, "[7]": {"experiment": "Permeability in pig LLC-PK1 cells", "assay_type": "ADME, cell-based, Sus scrofa", "conditions": "read-out: permeability"}, "[8]": {"experiment": "Aqueous solubility of the compound in buffer", "assay_type": "physicochemical"}, "[9]": {"experiment": "Permeability in rat jejunum", "assay_type": "ADME, tissue-based", "conditions": "read-out: permeability"}, "[10]": {"experiment": "Aqueous solubility of the compound in FaSSIF at pH 6.5 measured by dissolution tester", "assay_type": "physicochemical"}}, "data": [{"compound": "CCC[C@H](NC(=O)[C@@H]1[C@H]2CCC[C@H]2CN1C(=O)[C@@H](NC(=O)[C@@H](NC(=O)c1cnccn1)C1CCCCC1)C(C)(C)C)C(=O)C(=O)NC1CC1", "values": [{"measurement": "Papp", "setting": "[1]", "value": "> 4.4", "unit": "×10⁻⁶ cm/s"}, {"measurement": "solubility at 72 h", "setting": "physchem", "value": 4.7, "unit": "µg/mL"}]}, {"compound": "COC(=O)N[C@H](C(=O)N1CCC[C@H]1c1nc(-c2ccc3c(c2)O[C@@H](c2ccccc2)n2c-3cc3cc(-c4c[nH]c([C@@H]5CCCN5C(=O)[C@@H](NC(=O)OC)C(C)C)n4)ccc32)c[nH]1)C(C)C", "note": "[ELBASVIR]", "values": [{"measurement": "solubility", "setting": "[2]", "value": "> 5", "unit": "µg/mL"}, {"measurement": "solubility", "setting": "[3]", "value": 50, "unit": "µg/mL"}, {"measurement": "Papp", "setting": "[4]", "value": 0.8, "unit": "×10⁻⁶ cm/s"}]}, {"compound": "Cc1cc(C#N)cc(C)c1Oc1nc(Nc2ccc(C#N)cc2)nc(N)c1Br", "note": "[ETRAVIRINE]", "values": [{"measurement": "solubility", "setting": "[5]", "value": "< 1", "unit": "µg/mL"}]}, {"compound": "C=C[C@@H]1C[C@]1(NC(=O)[C@@H]1C[C@@H]2CN1C(=O)[C@H](C(C)(C)C)NC(=O)O[C@@H]1C[C@H]1CCCCCc1nc3ccc(OC)cc3nc1O2)C(=O)NS(=O)(=O)C1CC1", "note": "[GRAZOPREVIR ANHYDROUS]", "values": [{"measurement": "solubility", "setting": "[6]", "value": "< 7", "unit": "µg/mL"}, {"measurement": "Papp", "setting": "[7]", "value": 19, "unit": "×10⁻⁶ cm/s"}]}, {"compound": "CC(C)(C)c1cc(C(C)(C)C)c(NC(=O)c2c[nH]c3ccccc3c2=O)cc1O", "note": "[IVACAFTOR]", "values": [{"measurement": "solubility", "setting": "[8]", "value": "< 0.05", "unit": "µg/mL"}]}, {"compound": "COC(=O)N[C@H](C(=O)N1CCC[C@H]1c1nc2cc([C@H]3CC[C@H](c4cc5nc([C@@H]6CCCN6C(=O)[C@@H](NC(=O)OC)[C@@H](C)OC)[nH]c5cc4F)N3c3cc(F)c(N4CCC(c5ccc(F)cc5)CC4)c(F)c3)c(F)cc2[nH]1)[C@@H](C)OC", "note": "[PIBRENTASVIR]", "values": [{"measurement": "Papp", "setting": "[4]", "value": "< 1", "unit": "×10⁻⁶ cm/s"}]}, {"compound": "CC(C)c1nc(CN(C)C(=O)N[C@H](C(=O)N[C@@H](Cc2ccccc2)C[C@H](O)[C@H](Cc2ccccc2)NC(=O)OCc2cncs2)C(C)C)cs1", "note": "[RITONAVIR]", "values": [{"measurement": "Papp", "setting": "[1]", "value": 20, "unit": "×10⁻⁶ cm/s"}]}, {"compound": "Cc1ccc(-n2nccn2)c(C(=O)N2CCN(c3nc4cc(Cl)ccc4o3)CC[C@H]2C)c1", "note": "[SUVOREXANT]", "values": [{"measurement": "solubility", "setting": "[6]", "value": 9, "unit": "µg/mL"}, {"measurement": "Papp", "setting": "[7]", "value": 22.8, "unit": "×10⁻⁶ cm/s"}]}, {"compound": "C=CC[C@@H]1/C=C(\\C)C[C@H](C)C[C@H](OC)[C@H]2O[C@@](O)(C(=O)C(=O)N3CCCC[C@H]3C(=O)O[C@H](/C(C)=C/[C@@H]3CC[C@@H](O)[C@H](OC)C3)[C@H](C)[C@@H](O)CC1=O)[C@H](C)C[C@@H]2OC", "note": "[TACROLIMUS ANHYDROUS]", "values": [{"measurement": "solubility", "setting": "[5]", "value": 1.3, "unit": "µg/mL"}, {"measurement": "Papp", "setting": "[9]", "value": 18, "unit": "×10⁻⁶ cm/s"}]}, {"compound": "CCCS(=O)(=O)Nc1ccc(F)c(C(=O)c2c[nH]c3ncc(-c4ccc(Cl)cc4)cc23)c1F", "note": "[VEMURAFENIB]", "values": [{"measurement": "solubility", "setting": "[10]", "value": 2, "unit": "µg/mL"}, {"measurement": "Papp", "setting": "[1]", "value": 2.9, "unit": "×10⁻⁶ cm/s"}]}]}
